Earlier results in patent publication US20090239812A1, “USE OF C7 SUGARS IN PREVENTION AND TREATMENT OF MYCOSES” (Laboratoires Expanscience, priority 2006, published 2009).

Test system: Ehrlich's ascites tumor cells
Settings: perseitol associated with a potassium ion; Shibuya et al. 1999

Compound: OCC(O)C(O)C(O)C(O)C(O)CO (stereo not shown) [perseitol, Perseitol]
- incorporation of 3H-leucine: inhibits
